Experiment [1] addresses T1, human glucocorticoid receptor (Homo sapiens, UniProt P04150).
T1 construct: purified human recombinant full-length glucocorticoid receptor (2 nM); purchased Invitrogen Part #2893
T1 sequence (P04150 1-777): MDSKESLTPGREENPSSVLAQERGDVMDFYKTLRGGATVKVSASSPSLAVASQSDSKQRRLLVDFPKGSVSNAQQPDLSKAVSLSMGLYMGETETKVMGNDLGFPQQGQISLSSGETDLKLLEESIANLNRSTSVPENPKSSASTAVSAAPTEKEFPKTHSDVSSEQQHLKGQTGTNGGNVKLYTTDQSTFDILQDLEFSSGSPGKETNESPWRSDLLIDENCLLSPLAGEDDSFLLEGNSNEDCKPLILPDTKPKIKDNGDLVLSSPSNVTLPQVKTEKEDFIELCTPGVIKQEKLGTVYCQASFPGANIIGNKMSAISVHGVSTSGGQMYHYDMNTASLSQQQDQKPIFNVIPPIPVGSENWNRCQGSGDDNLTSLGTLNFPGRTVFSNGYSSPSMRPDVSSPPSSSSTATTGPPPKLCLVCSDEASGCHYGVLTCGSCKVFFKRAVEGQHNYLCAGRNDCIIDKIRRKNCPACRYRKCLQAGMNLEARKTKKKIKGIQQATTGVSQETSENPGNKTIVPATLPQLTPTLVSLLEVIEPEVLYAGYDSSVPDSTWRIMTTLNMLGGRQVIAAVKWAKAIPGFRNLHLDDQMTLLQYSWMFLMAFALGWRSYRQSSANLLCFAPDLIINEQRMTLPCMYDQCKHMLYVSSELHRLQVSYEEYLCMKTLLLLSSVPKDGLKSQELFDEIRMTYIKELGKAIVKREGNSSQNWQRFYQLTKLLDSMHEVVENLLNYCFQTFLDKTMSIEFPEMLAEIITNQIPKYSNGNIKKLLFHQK
Description: Glucocorticoid Receptor Binding Assay (I), fluorescence polarization competitor kit. Particulars: purified human recombinant full-length GR, Fluormone GS Red. The procedure: Glucocorticoid Receptor Binding Assay (I)^a
In order to assess the affinity of test compounds for the human glucocorticoid receptor, a commercially available kit was used (Glucocorticoid Receptor Competitor Assay Kit, Invitrogen Part #2893). Briefly, purified human recombinant full-length glucocorticoid receptor (2 nM) was mixed with fluorescently labeled glucocorticoid (1 nM Fluormone GS Red) in the presence or absence of test compound. After two hour incubation at room temperature in the dark, the fluorescence polarization (FP) of the samples was measured. The FP of a mixture of receptor, fluorescent probe (i.e. Fluormone GS Red) and 5 μM dexamethasone represented background fluorescence or 100% inhibition, whereas, the FP of the mixture without dexamethasone (but in the presence of vehicle) was taken to be 100% binding. The percentage inhibition of test compounds were then compared to the sample with 5 μM dexamethasone and expressed as % relative binding activity with dexamethasone being 100% and no inhibition is 0%. Test compounds were analyzed in the concentration range from 8.5E-05 μM to 5 μM.

Experiment [2] relates to AP-1 induced transcriptional activity. Description: Cellular Transrepressional Assay (AP-1 luciferase reporter in A549 cell, PMA activated). Format: cell-based. To be noted: Homo sapiens, A549, 7 h, pAP-1-Luc; for Emax: maximum inhibition, PMA, read-out: AP-1 Max % inh (Cellular Transrepression Assay); for EC50: 10 ng/ml PMA, 7 hours, read-out: AP-1 EC50, nM (Cellular Transrepression Assay). The method, boiled down: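 A549 cells stably carrying a 7×AP-1-site luciferase reporter were stimulated with 10 ng/ml PMA for 7 h alongside test molecules (0.1 nM to 40 μM). Luminescence read 10 min after luciferase reagent; repression expressed as % decrease of PMA-only signal, EC50 from curve fitting at 50% reduction of AP-1 activity.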

The values that follow come from US8222247B2, “Modulators of glucocorticoid receptor, AP-1, and/or NF-kappabeta activity and use thereof” (Bristol-Myers Squibb Company, priority 2006, dated 2012).

On to `CC(C(=O)Nc1nncs1)C(c1cccc(F)c1)c1ccc(Br)s1` (mixture of isomers) [Example 93, 3-(5-bromo-2-thienyl)-3-(3-fluorophenyl)-2-methyl-N-1,3,4-thiadiazol-2-ylpropanamide], for which the Ki in experiment [1] came to 2.79 nM.

Consider `CC(C(=O)Nc1nncs1)C(c1ccccc1)c1ccc(Br)s1` (mixture of isomers) [Example 132, 3-(5-bromo-2-thienyl)-2-methyl-3-phenyl-N-1,3,4-thiadiazol-2-ylpropanamide], for which, in experiment [1], the Ki was determined as 3.2 nM.

For the molecule `CC(C)(C(=O)Nc1nncs1)C(c1ccccc1)c1ccc(Br)s1` (single isomer, unassigned) [Example 84, 3-(5-bromo-2-thienyl)-2,2-dimethyl-3-phenyl-N-1,3,4-thiadiazol-2-ylpropanamide], the Ki in experiment [1] amounted to 5.06 nM.

For the molecule `CC(C)(C(=O)Nc1nncs1)C(c1ccccc1)c1ccc(Br)s1` (single isomer, unassigned) [Example 85, 3-(5-bromo-2-thienyl)-2,2-dimethyl-3-phenyl-N-1,3,4-thiadiazol-2-ylpropanamide], the Ki in experiment [1] was found to be 2.74 nM.

On to `CC(C(=O)Nc1nncs1)C(c1ccccc1)c1ccc(Br)s1` (single isomer, unassigned) [Example 134, 3-(5-bromo-2-thienyl)-2-methyl-3-phenyl-N-1,3,4-thiadiazol-2-ylpropanamide], for which the Ki in experiment [1] was 1.06 nM.

With `C[C@@H](C(=O)Nc1nncs1)[C@H](c1cccc(F)c1)c1ccc(-c2ccc(C(=O)N3CCOCC3)cc2)s1` [Example 109, (2R,3R)-3-(3-fluorophenyl)-2-methyl-3-(5-(4-(4-morpholinylcarbonyl)phenyl)-2-thienyl)-N-1,3,4-thiadiazol-2-ylpropanamide], in experiment [2], the Emax is 57.5% and the EC50 turned out to be 8.39 nM.

Consider `C[C@@H](C(=O)Nc1nncs1)[C@H](c1cccc(F)c1)c1ccc(-c2ccc(C(=O)N(C)C)c(Cl)c2)s1` [Example 110, 2-Chloro-4-(5-((1R,2R)-1-(3-fluorophenyl)-2-methyl-3-oxo-3-(1,3,4-thiadiazol-2-ylamino)propyl)-2-thienyl)-N,N-dimethylbenzamide], for which, in experiment [2], the Emax is 47% and the EC50 is 24.6 nM.

Take `C[C@@H](C(=O)Nc1nncs1)[C@H](c1cccc(F)c1)c1ccc(-c2ccc(C(=O)N3CCOCC3)c(Cl)c2)s1` [Example 111, (2R,3R)-3-(5-(3-chloro-4-(4-morpholinylcarbonyl)phenyl)-2-thienyl)-3-(3-fluorophenyl)-2-methyl-N-1,3,4-thiadiazol-2-ylpropanamide]: in experiment [2], the Emax is 53.3% and the EC50 is 21.2 nM.

Regarding `C[C@@H](C(=O)Nc1nncs1)[C@H](c1cccc(F)c1)c1ccc(-c2ccc(C(=O)N(C)C)c(F)c2)s1` [Example 112, 2-fluoro-4-(5-((1R,2R)-1-(3-fluorophenyl)-2-methyl-3-oxo-3-(1,3,4-thiadiazol-2-ylamino)propyl)-2-thienyl)-N,N-dimethylbenzamide], in experiment [2], the Emax was found to be 54% and the EC50 was determined as 18.5 nM.

On to `CC(C)Oc1ccc(-c2ccc([C@@H](c3cccc(F)c3)[C@@H](C)C(=O)Nc3nncs3)s2)cc1` [Example 113, (2R,3R)-3-(3-fluorophenyl)-3-(5-(4-isopropoxyphenyl)-2-thienyl)-2-methyl-N-1,3,4-thiadiazol-2-ylpropanamide], for which, in experiment [2], the Emax was 37.8% and the EC50 was 17.9 nM.

Take `CC(C)Cc1ccc(-c2ccc([C@@H](c3cccc(F)c3)[C@@H](C)C(=O)Nc3nncs3)s2)cc1` [Example 114, (2R,3R)-3-(3-fluorophenyl)-3-(5-(4-isobutylphenyl)-2-thienyl)-2-methyl-N-1,3,4-thiadiazol-2-ylpropanamide]: in experiment [2], the Emax amounted to 36.6% and the EC50 worked out at 45.5 nM.

Regarding `C[C@@H](C(=O)Nc1nncs1)[C@H](c1cccc(F)c1)c1ccc(-c2ccc(C(=O)N3CCCC3)c(Cl)c2)s1` [Example 115, (2R,3R)-3-(5-(3-chloro-4-(1-pyrrolidinylcarbonyl)phenyl)-2-thienyl)-3-(3-fluorophenyl)-2-methyl-N-1,3,4-thiadiazol-2-ylpropanamide], in experiment [2], the Emax was 39.1% and the EC50 amounted to 31 nM.

For the molecule `C[C@@H](C(=O)Nc1nncs1)[C@H](c1cccc(F)c1)c1ccc(-c2ccc(C(=O)N3CCCC3)c(F)c2)s1` [Example 116, (2R,3R)-3-(3-fluorophenyl)-3-(5-(3-fluoro-4-(1-pyrrolidinylcarbonyl)phenyl)-2-thienyl)-2-methyl-N-1,3,4-thiadiazol-2-ylpropanamide], in experiment [2], the Emax was found to be 40.8% and the EC50 was 67.7 nM.

Take `C[C@@H](C(=O)Nc1nncs1)[C@H](c1cccc(F)c1)c1ccc(-c2ccc(C(=O)N(C)C)cc2)s1` [Example 117, 4-(5-((1R,2R)-1-(3-fluorophenyl)-2-methyl-3-oxo-3-(1,3,4-thiadiazol-2-ylamino)propyl)-2-thienyl)-N,N-dimethylbenzamide]: in experiment [2], the Emax is 56.5% and the EC50 was 14.4 nM.

On to `C[C@@H](C(=O)Nc1nncs1)[C@H](c1cccc(F)c1)c1ccc(-c2ccc(C(=O)N3CCCC3)cc2)s1` [Example 118, (2R,3R)-3-(3-fluorophenyl)-2-methyl-3-(5-(4-(1-pyrrolidinylcarbonyl)phenyl)-2-thienyl)-N-1,3,4-thiadiazol-2-ylpropanamide], for which, in experiment [2], the Emax turned out to be 55.3% and the EC50 amounted to 61.6 nM.

As to `CCN(C)C(=O)c1ccc(-c2ccc([C@@H](c3cccc(F)c3)[C@@H](C)C(=O)Nc3nncs3)s2)cc1Cl` [Example 119, 2-chloro-N-ethyl-4-(5-((1R,2R)-1-(3-fluorophenyl)-2-methyl-3-oxo-3-(1,3,4-thiadiazol-2-ylamino)propyl)-2-thienyl)-N-methylbenzamide], in experiment [2], the Emax was determined as 47.6% and the EC50 was determined as 22.7 nM.

As for `CCN(C)C(=O)c1ccc(-c2ccc([C@@H](c3cccc(F)c3)[C@@H](C)C(=O)Nc3nncs3)s2)cc1F` [Example 120, N-ethyl-2-fluoro-4-(5-((1R,2R)-1-(3-fluorophenyl)-2-methyl-3-oxo-3-(1,3,4-thiadiazol-2-ylamino)propyl)-2-thienyl)-N-methylbenzamide], in experiment [2], the Emax is 42.9% and the EC50 stood at 22.9 nM.

For `C[C@@H](C(=O)Nc1nncs1)[C@H](c1cccc(F)c1)c1ccc(-c2ccc(C(=O)N3CCC(F)(F)C3)cc2)s1` [Example 121, (2R,3R)-3-(5-(4-((3,3-difluoro-1-pyrrolidinyl)carbonyl)phenyl)-2-thienyl)-3-(3-fluorophenyl)-2-methyl-N-1,3,4-thiadiazol-2-ylpropanamide], in experiment [2], the Emax worked out at 28.7% and the EC50 came out at 66.8 nM.

For the molecule `C[C@@H](C(=O)Nc1nncs1)[C@H](c1ccccc1)c1ccc(-c2ccc(C(=O)N(C)C)cc2)s1` [Example 140, N,N-dimethyl-4-(5-((1R,2R)-2-methyl-3-oxo-1-phenyl-3-(1,3,4-thiadiazol-2-ylamino)propyl)-2-thienyl)benzamide], in experiment [2], the Emax is 54.1% and the EC50 turned out to be 15.2 nM.

On to `CCN(C)C(=O)c1ccc(-c2ccc([C@@H](c3cccc(F)c3)[C@@H](C)C(=O)Nc3nnc(C)s3)s2)cc1` [Example 141, N-Ethyl-4-(5-((1R,2R)-1-(3-fluorophenyl)-2-methyl-3-((5-methyl-1,3,4-thiadiazol-2-yl)amino)-3-oxopropyl)-2-thienyl)-N-methylbenzamide], for which, in experiment [2], the Emax amounted to 46% and the EC50 was determined as 62.2 nM.

For the molecule `CCN(C)C(=O)c1ccc(-c2ccc([C@@H](c3cccc(F)c3)[C@@H](C)C(=O)Nc3nccs3)s2)cc1` [Example 143, N-ethyl-4-(5-((1R,2R)-1-(3-fluorophenyl)-2-methyl-3-oxo-3-(1,3-thiazol-2-ylamino)propyl)-2-thienyl)-N-methylbenzamide], in experiment [2], the Emax was 63.6% and the EC50 was found to be 16.9 nM.
